Three compounds from patent US4517007A, “Phosphoroamide urease inhibitors and urease inhibited urea based fertilizer compositions” (Allied Corporation, priority 1983, dated 1985) can be followed below.

In the assay the test system is urease. Kind of assay: Urease Inhibition Efficacy Test in soil (urea remaining after incubation). It counts as biochemical. Particulars: 800 micrograms test compound and 42.8 mg urea on 20 g air-dry Cazenovia silt loam, pH 7.0; incubated at 25° C. for three days; run in triplicate. The procedure: Efficacy tests were conducted to evaluate the efficacy of representative compounds as urease inhibitors. The inhibition tests were run in a New York soil (Cazenovia silt loam, pH 7.0). Evaluations (run in triplicate) consisted of applying 800 micrograms of the test compound in 5 mL of water and 42.8 mg of urea in 1 mL of water to 20 g of air-dry soil in a glass bottle. The bottle was capped with perforated aluminum foil and incubated at 25° C. for three days prior to extraction with 100 mL of a 2M KCl solution containing 0.5 mg of phenylmercuric acetate. The extracts were then analyzed for remaining urea using an autoanalyzer. Percent inhibition was calculated as [formula] where A is urea recovered from an unincubated sample (urea added to soil and immediately extracted); B is urea recovered from an inhibited sample; and C is urea recovered from the control (uninhibited sample).

In the case of `NP1(=O)Oc2ccccc2O1` [Experiment 1], the “% Inhibition 40 micrograms per gram Cazenovia soil” value turned out to be 54%. For `NP(N)(=O)Oc1cccc2c1OP(N)(=O)O2` (stereo not drawn) [Experiment 2] the value was 5%; for `NP(N)(=O)Oc1ccc2c(c1)OP(N)(=O)O2` (stereo not drawn) [Experiment 3], 21%.
